Reference: patent US10561143B2, “Fungicidal composition having synergistic effect” (JIANGSU HUIFENG AGROCHEMICAL CO., LTD., priority 2013, dated 2020)
Values after ≈ are worked out from the molar mass of the structure shown. Like-named read-outs stand apart in the source and are kept apart here.

Key:
[1] = test system: late blight pathogens of potato; test: whole plant or invertebrate; format: in vivo
[2] = test system: downy mildew pathogens of grape; test: Toxicity test on downy mildew pathogens of grape (disease index and control effect on whole grape plants, EC50 and co-toxicity coefficient)
[3] = Table 9, series with picoxystrobin
[4] = Table 6, series with fluopicolide

## CCC(C)(NC(=O)c1cc(Cl)c(C)c(Cl)c1)C(=O)CCl (stereo not drawn) [Zoxamide]
[1]; Phytophthora infestans
  EC50: 6.21 µg/mL (≈ 18.4 µM)
[2]
  EC50: 11.5 µg/mL (≈ 34.1 µM)

## CO/C=C(/C(=O)OC)c1ccccc1COc1cccc(C(F)(F)F)n1 [Picoxystrobin]
[2]; [3]
  EC50: 15.31 µg/mL (≈ 41.7 µM)

## COC(=O)N(OC)c1ccccc1COc1ccn(-c2ccc(Cl)cc2)n1 [pyraclostrobin]
[1]; Phytophthora infestans
  EC50: 5.28 µg/mL (≈ 13.6 µM)
[2]
  EC50: 10.7 µg/mL (≈ 27.6 µM)

## CSC1=N[C@@](C)(c2ccccc2)C(=O)N1Nc1ccccc1 [Fenamidone]
[1]; Phytophthora infestans
  EC50: 6.58 µg/mL (≈ 21.1 µM)
[2]
  EC50: 12.8 µg/mL (≈ 41 µM)

## C[C@@]1(c2ccc(Oc3ccccc3)cc2)OC(=O)N(Nc2ccccc2)C1=O (racemic) [Famoxadone]
[2]
  EC50: 13.8 µg/mL (≈ 36.9 µM)

## O=[N+]([O-])c1cc(C(F)(F)F)c(Cl)c([N+](=O)[O-])c1Nc1ncc(C(F)(F)F)cc1Cl [Fluazinam]
[2]
  EC50: 11.2 µg/mL (≈ 24.2 µM)

## CC(C)OC(=O)N[C@H](C(=O)N[C@H](C)c1nc2ccc(F)cc2s1)C(C)C [Benthiavalicarb-isopropyl]
[1]; Phytophthora infestans
  EC50: 6.73 µg/mL (≈ 17.6 µM)
[2]
  EC50: 10.8 µg/mL (≈ 28.2 µM)

## Cl.O=c1[nH]sc2ccccc12 [Benziothiazolinone hydrochloride]
[2]; Table 10, series with fluazinam
  EC50: 12.87 µg/mL

## O=C(Nc1ccccc1-c1ccc(Cl)cc1)c1cccnc1Cl [Boscalid]
[1]; Phytophthora infestans
  EC50: 6.31 µg/mL (≈ 18.4 µM)
[2]
  EC50: 11.6 µg/mL (≈ 33.8 µM)

## O=C(NCc1ncc(C(F)(F)F)cc1Cl)c1c(Cl)cccc1Cl [Fluopicolide]
[2]; [4]
  EC50: 15.32 µg/mL (≈ 39.9 µM)

## O=c1[nH]sc2ccccc12 [Benziothiazolinone]
[1]; Table 11, series with pyraclostrobin
  EC50: 6.89 µg/mL (≈ 45.6 µM)
[1]; Table 12, series with boscalid
  EC50: 5.58 µg/mL (≈ 36.9 µM)
[1]; Table 13, series with benthiavalicarb-isopropyl
  EC50: 6.22 µg/mL (≈ 41.1 µM)
[1]; Table 14, series with zoxamide
  EC50: 5.89 µg/mL (≈ 39 µM)
[1]; Table 15, series with fenamidone
  EC50: 6.12 µg/mL (≈ 40.5 µM)
[2]; Table 1, series with benthiavalicarb-isopropyl
  EC50: 8.92 µg/mL (≈ 59 µM)
[2]; Table 2, series with zoxamide
  EC50: 9.41 µg/mL (≈ 62.2 µM)
[2]; Table 3, series with prothioconazole
  EC50: 10.05 µg/mL (≈ 66.5 µM)
[2]; Table 4, series with boscalid
  EC50: 9.46 µg/mL (≈ 62.6 µM)
[2]; Table 5, series with fenamidone
  EC50: 10.59 µg/mL (≈ 70 µM)
[2]; [4]
  EC50: 12.17 µg/mL (≈ 80.5 µM)
[2]; Table 7, series with famoxadone
  EC50: 11.36 µg/mL (≈ 75.1 µM)
[2]; Table 8, series with pyraclostrobin
  EC50: 11.85 µg/mL (≈ 78.4 µM)
[2]; [3]
  EC50: 14.18 µg/mL (≈ 93.8 µM)

## OC(Cc1ccccc1Cl)(Cn1nc[nH]c1=S)C1(Cl)CC1 (stereo not drawn) [Prothioconazole]
[2]
  EC50: 13.3 µg/mL (≈ 38.5 µM)
